Measured values reported in PubChem BioAssay (NCI).
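How tested: cells in 96-well plates exposed to compound for 48 hours at five concentrations. TGI is the concentration that stops growth completely.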

Columns and labels:
Assay in all cases: growth of human tumour cells (NCI), 48 h
[1] = test system: SF-295 CNS
[2] = test system: UO-31 renal
[3] = test system: DU-145 prostate
[4] = test system: SR leukemia
[5] = test system: M14 melanoma
[6] = test system: SK-MEL-5 melanoma
[7] = test system: OVCAR-5 ovarian
[8] = test system: KM12 colon
[9] = test system: CAKI-1 renal
[10] = test system: ACHN renal
[11] = test system: MOLT-4 leukemia
[12] = test system: SNB-75 CNS
[13] = test system: NCI-H23 lung
[14] = test system: BT-549 breast
[15] = test system: SNB-19 CNS
[16] = test system: COLO 205 colon
[17] = test system: TK-10 renal
[18] = test system: HL-60(TB) leukemia
[19] = test system: K-562 leukemia
[20] = test system: T-47D breast
[21] = test system: OVCAR-4 ovarian
[22] = test system: HT29 colon
[23] = test system: U251 CNS
[24] = test system: SK-OV-3 ovarian
[25] = test system: MDA-MB-231 breast
[26] = test system: HCT-116 colon
[27] = test system: OVCAR-3 ovarian
[28] = test system: CCRF-CEM leukemia
[29] = test system: HOP-62 NSCLC
[30] = test system: PC-3 prostate
[31] = test system: HS 578T breast
[32] = test system: A498 renal
[33] = test system: UACC-62 melanoma
[34] = test system: MDA-MB-435
[35] = test system: NCI-H226 lung
[36] = test system: SF-268 CNS
[37] = test system: NCI-H460 lung
[38] = test system: UACC-257 melanoma
[39] = test system: SN12C renal
[40] = test system: MDA-N
[41] = test system: A549 NSCLC
[42] = test system: RXF 393 renal
[43] = test system: OVCAR-8 ovarian
[44] = test system: SW-620 colon
[45] = test system: IGROV1 ovarian
[46] = test system: NCI-H522 lung
[47] = test system: 786-0 renal
[48] = test system: SK-MEL-28 melanoma
[49] = test system: SF-539 CNS
[50] = test system: HOP-92 NSCLC
[51] = test system: MALME-3M melanoma
[52] = test system: RPMI-8226 leukemia
[53] = test system: LOX IMVI melanoma
[54] = test system: MCF7 breast
[55] = test system: NCI/ADR-RES ovarian
[56] = test system: HCT-15 colon
[57] = test system: HCC-2998 colon
[58] = test system: EKVX NSCLC

## CC1(C)CC2(C)CC1CC2(O)c1ccccc1 (stereo not given)
[1]
  TGI: > 100 µM
[2]
  TGI: > 100 µM
[3]
  TGI: > 100 µM
[4]
  TGI: > 100 µM
[5]
  TGI: > 100 µM
[6]
  TGI: > 100 µM
[7]
  TGI: > 100 µM
[8]
  TGI: > 100 µM
[9]
  TGI: > 100 µM
[10]
  TGI: > 100 µM
[11]
  TGI: > 100 µM
[12]
  TGI: > 100 µM
[13]
  TGI: > 100 µM
[14]
  TGI: > 100 µM
[15]
  TGI: > 100 µM
[16]
  TGI: > 100 µM
[17]
  TGI: > 100 µM
[18]
  TGI: > 100 µM
[19]
  TGI: > 100 µM
[20]
  TGI: > 100 µM
[21]
  TGI: > 100 µM
[22]
  TGI: > 100 µM
[23]
  TGI: > 100 µM
[24]
  TGI: > 100 µM
[25]
  TGI: > 100 µM
[26]
  TGI: > 100 µM
[27]
  TGI: > 100 µM
[28]
  TGI: > 100 µM
[29]
  TGI: > 100 µM
[30]
  TGI: > 100 µM
[31]
  TGI: > 100 µM
[32]
  TGI: > 100 µM
[33]
  TGI: > 100 µM
[34]
  TGI: > 100 µM
[35]
  TGI: > 100 µM
[36]
  TGI: > 100 µM
[37]
  TGI: > 100 µM
[38]
  TGI: > 100 µM
[39]
  TGI: > 100 µM
[40]
  TGI: > 100 µM
[41]
  TGI: > 100 µM
[42]
  TGI: > 100 µM
[43]
  TGI: > 100 µM
[44]
  TGI: > 100 µM
[45]
  TGI: > 100 µM
[46]
  TGI: > 100 µM
[47]
  TGI: > 100 µM
[48]
  TGI: > 100 µM
[49]
  TGI: > 100 µM
[50]
  TGI: > 100 µM
[51]
  TGI: > 100 µM

## CCCCCCCCCC(=O)N[C@@H](c1ccco1)[C@@H](O)C(=O)O[C@H]1C[C@@]2(O)[C@@H](OC(=O)c3ccccc3)[C@@H]3[C@]4(OC(C)=O)CO[C@@H]4C[C@H](O)[C@@]3(C)C(=O)[C@H](OC(C)=O)C(=C1C)C2(C)C
[1]
  TGI: 0.211 µM
[2]
  TGI: 12.7 µM
[52]
  TGI: 0.0483 µM
[4]
  TGI: 10 µM
[6]
  TGI: 2.25 µM
[7]
  TGI: 0.151 µM
[8]
  TGI: 8.44 µM
[9]
  TGI: > 38.9 µM
[53]
  TGI: 7.74 µM
[54]
  TGI: 1.81 µM
[10]
  TGI: > 22.7 µM
[11]
  TGI: 2.3 µM
[13]
  TGI: 11.4 µM
[55]
  TGI: 20.5 µM
[14]
  TGI: 1.07 µM
[15]
  TGI: > 30.5 µM
[16]
  TGI: 0.0335 µM
[17]
  TGI: 9.22 µM
[56]
  TGI: 8.73 µM
[18]
  TGI: 0.0292 µM
[19]
  TGI: > 50 µM
[20]
  TGI: 1.42 µM
[21]
  TGI: > 24.7 µM
[22]
  TGI: 7.1 µM
[23]
  TGI: 2.34 µM
[24]
  TGI: > 18.7 µM
[25]
  TGI: 4.47 µM
[26]
  TGI: 1.13 µM
[27]
  TGI: 3.48 µM
[29]
  TGI: 1.68 µM
[57]
  TGI: 0.736 µM
[30]
  TGI: > 35.1 µM
[31]
  TGI: 0.0857 µM
[32]
  TGI: 10.3 µM
[33]
  TGI: 9.53 µM
[34]
  TGI: 0.0345 µM
[58]
  TGI: > 50 µM
[35]
  TGI: 9.53 µM
[36]
  TGI: 24.5 µM
[37]
  TGI: 8.9 µM
[38]
  TGI: 11.7 µM
[39]
  TGI: 11.4 µM
[40]
  TGI: 0.00909 µM
[41]
  TGI: > 50 µM
[42]
  TGI: 0.898 µM
[43]
  TGI: 11 µM
[44]
  TGI: > 50 µM
[45]
  TGI: 16.1 µM
[46]
  TGI: 0.631 µM
[47]
  TGI: 7.95 µM
[48]
  TGI: 14.8 µM
[49]
  TGI: 0.17 µM
[50]
  TGI: 21.2 µM
[51]
  TGI: 12.4 µM
